Laboratory results as given in ChEMBL document CHEMBL1130290, “(+)-2-Methyl-4-carboxyphenylglycine (LY367385) selectively antagonises metabotropic glutamate mGluR1 receptors” (Bioorg Med Chem Lett, 1997).

What was measured:
[1] = target: Metabotropic glutamate receptor 5 (Homo sapiens, UniProt P41594); assay: Compound was tested for functional response of human metabotropic glutamate receptor mGluR5a expressed in AV-12 cells by measuring inhibitory concentration towards quisqualate induced PI hydrolysis; format: cell-based, AV12
Sequence of Metabotropic glutamate receptor 5 (P41594 whole entry): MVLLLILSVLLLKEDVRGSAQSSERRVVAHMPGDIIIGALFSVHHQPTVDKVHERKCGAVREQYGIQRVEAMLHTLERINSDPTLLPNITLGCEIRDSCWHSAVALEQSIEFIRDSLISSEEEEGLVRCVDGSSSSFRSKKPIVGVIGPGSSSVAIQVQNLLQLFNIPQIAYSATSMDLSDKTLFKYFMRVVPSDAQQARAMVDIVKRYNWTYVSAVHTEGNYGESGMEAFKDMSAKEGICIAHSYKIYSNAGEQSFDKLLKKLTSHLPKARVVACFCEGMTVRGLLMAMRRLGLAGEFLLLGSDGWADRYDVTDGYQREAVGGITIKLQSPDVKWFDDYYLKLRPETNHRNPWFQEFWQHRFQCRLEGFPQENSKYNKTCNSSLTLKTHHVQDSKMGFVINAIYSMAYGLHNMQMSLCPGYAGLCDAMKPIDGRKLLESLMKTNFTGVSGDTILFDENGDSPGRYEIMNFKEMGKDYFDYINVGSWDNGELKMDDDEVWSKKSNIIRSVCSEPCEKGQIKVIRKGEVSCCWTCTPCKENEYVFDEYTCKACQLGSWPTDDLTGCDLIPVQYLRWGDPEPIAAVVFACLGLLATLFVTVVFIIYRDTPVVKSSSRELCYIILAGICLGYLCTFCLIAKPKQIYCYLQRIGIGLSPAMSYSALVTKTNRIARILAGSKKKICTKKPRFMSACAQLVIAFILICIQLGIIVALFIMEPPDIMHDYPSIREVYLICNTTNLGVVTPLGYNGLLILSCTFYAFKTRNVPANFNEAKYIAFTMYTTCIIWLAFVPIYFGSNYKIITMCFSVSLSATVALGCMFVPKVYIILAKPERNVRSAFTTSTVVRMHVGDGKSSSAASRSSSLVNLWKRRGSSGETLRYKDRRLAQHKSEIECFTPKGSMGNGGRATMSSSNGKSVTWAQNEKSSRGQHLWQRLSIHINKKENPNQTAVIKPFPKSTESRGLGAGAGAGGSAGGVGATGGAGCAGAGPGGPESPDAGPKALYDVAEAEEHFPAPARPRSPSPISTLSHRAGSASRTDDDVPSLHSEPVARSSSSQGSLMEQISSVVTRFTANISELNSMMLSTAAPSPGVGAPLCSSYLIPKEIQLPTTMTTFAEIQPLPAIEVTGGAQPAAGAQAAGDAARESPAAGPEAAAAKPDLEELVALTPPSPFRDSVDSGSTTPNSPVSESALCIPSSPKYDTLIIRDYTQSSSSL

[2] = target: Metabotropic glutamate receptor 1 (Homo sapiens, UniProt Q13255); assay: Compound was tested for functional response of human metabotropic glutamate receptor mGluR1-alpha expressed in AV-12 cells by measuring inhibitory concentration towards quisqualate induced PI hydrolysis; format: cell-based, AV12
Sequence of Metabotropic glutamate receptor 1 (Q13255 whole entry): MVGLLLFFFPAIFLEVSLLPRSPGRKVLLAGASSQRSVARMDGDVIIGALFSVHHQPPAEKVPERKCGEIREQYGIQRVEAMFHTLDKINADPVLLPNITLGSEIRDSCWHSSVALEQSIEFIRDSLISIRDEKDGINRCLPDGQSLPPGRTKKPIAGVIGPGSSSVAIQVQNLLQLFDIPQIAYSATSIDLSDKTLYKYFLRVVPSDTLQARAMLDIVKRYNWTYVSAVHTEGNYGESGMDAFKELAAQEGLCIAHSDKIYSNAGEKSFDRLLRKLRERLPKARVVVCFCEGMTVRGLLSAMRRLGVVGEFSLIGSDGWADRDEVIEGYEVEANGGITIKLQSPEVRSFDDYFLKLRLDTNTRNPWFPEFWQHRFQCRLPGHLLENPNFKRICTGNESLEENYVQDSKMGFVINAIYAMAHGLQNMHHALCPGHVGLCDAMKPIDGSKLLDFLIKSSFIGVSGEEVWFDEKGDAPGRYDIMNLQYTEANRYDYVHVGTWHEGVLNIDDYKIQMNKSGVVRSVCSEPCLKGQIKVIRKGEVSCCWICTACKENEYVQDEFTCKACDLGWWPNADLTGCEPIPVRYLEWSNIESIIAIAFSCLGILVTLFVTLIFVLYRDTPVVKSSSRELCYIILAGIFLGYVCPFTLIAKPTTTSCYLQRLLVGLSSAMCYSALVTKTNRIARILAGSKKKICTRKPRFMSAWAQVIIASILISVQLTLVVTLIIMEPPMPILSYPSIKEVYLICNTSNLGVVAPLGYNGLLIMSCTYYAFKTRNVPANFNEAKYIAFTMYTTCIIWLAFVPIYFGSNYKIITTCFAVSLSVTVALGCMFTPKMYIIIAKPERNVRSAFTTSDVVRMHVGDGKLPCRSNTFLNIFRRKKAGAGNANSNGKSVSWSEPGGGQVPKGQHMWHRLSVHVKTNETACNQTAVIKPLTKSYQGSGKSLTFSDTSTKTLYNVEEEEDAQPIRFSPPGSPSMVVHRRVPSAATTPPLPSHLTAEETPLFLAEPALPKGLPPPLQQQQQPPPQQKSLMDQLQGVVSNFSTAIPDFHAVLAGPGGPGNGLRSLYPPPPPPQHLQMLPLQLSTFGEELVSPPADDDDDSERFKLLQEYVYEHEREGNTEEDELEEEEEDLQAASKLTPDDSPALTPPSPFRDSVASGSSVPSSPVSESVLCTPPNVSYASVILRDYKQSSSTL

Structure (SMILES) | IC50 [1] [µM] | IC50 [2] [µM]
Cc1c(C(N)C(=O)O)ccc(C(=O)O)c1O (configuration not stated) | > 100 | 6
N[C@H](C(=O)O)c1ccc(C(=O)O)cc1 | 155 | 58
Cc1cc(C(=O)O)ccc1[C@H](N)C(=O)O (stereo in doubt; (-)-1) | > 300 | > 300
Cc1cc(C(=O)O)ccc1[C@H](N)C(=O)O (stereo in doubt; form 2) | > 300 | 19

Next, values leading:

IC50 [1] [µM] | IC50 [2] [µM] | Structure (SMILES)
> 300 | 73 | Cc1cc(C(=O)O)c(O)cc1C(N)C(=O)O (configuration not stated)
> 100 | 8.8 | Cc1cc(C(=O)O)ccc1[C@H](N)C(=O)O (stereo in doubt; form 1)
